The test system of data set [1] is diseased hAECs (TNF-α stimulated). Briefly: Effects of colchicine on diseased EC function (NO production, DAF-FM). It counts as cell-based, human. To be noted: tested 10, 20, 40, 80, 160 nM; three days; versus diseased hAECs without colchicine. As for the experimental part: Experiment approach: hAECs were seeded in 48-well plate at a cell density of 5000 per well and allowed to attach and grow for 24 h to create a stable confluent monolayer of hAECs (hereafter the “endothelium”). Then, the diseased hAECs (“diseased endothelium”) were obtained by stimulating the hAECs with TNF-α (20 ng/mL) for 18 hours. After that, the colchicine at concentrations of 10 nM, 20 nM, 40 nM, 80 nM, and 160 nM was added to the hAECs after TNF-α stimulation, and then the hAECs were cultured for another three days. Then, the diseased hAEC function was assessed by measuring NO production by hAECs using DAF-FM (4-amino-5-methylamino-2′,7′-difluororescein). DAF-FM is essentially nonfluorescent until they react with NO to form a fluorescent benzotriazole. DAF-FM is cell-permeant and passively diffuses across cellular membranes. Once inside cells, it is de-acetylated by intracellular esterases. The fluorescence quantum yield of DAF-FM is —0.005, but increases about 160-fold, to ˜0.81, after reacting with nitric oxide. With excitation/emission maxima of 495/515 nm, DAF-FM can be detected by any instrument that can detect fluorescein, including fluorescent microplate readers. […] After the de-esterification, the fluorescence intensity of DAF-FM in hAECs was measured at (excitation/emission) 495/515 nm.

For another data set, the system named is U937 cells. Kind of data set: Effects of colchicine on foam cell formation (Bodipy). As to conditions: tested 0, 2, 5, 10, 20, 40 nM; Ox-LDL 100 ug/mL, 3 days. It counts as cell-based. As for the experimental part: Experimental approach: U937 cells with a cell density of 5000 cell/well were seeded in a 48 well plate, then the colchicine with a selected concentration range from 0 to 40 nM, that is 0, 2 nM, 5 nM, 10 nM, 20 nM, and 40 nM, were added into each well-containing monocytes and RAMPI monocyte culture medium. Then each well were added with M-CSF (100 ng/mL), GM-CSF (25 ng/mL) and INF-γ (100 ng/mL) for macrophage formation. After 7 days of culture, then Ox-LDL (100 ug/mL) was added to each well and cultured for 3 days. After 3 days of culture, the effect of […] on foam cell formation was assessed by using Bodipy. It was shown that the suppression of foam cells was observed when the colchicine concentration is above 2 nM, that is, at the concentrations of 5 nM, 10 nM, 20 nM, and 40 nM (FIG. 18B)

Data set [2] deals with patients with myocardial infarction or chronic coronary disease. To be noted: cited from earlier work.
For data set [3] the following is noted: cited from earlier work.
A further data set has as its system HAECs. Briefly: hAEC proliferation, CyQUANT Cell Proliferation Assay. It counts as cell-based, human. To be noted: sirolimus 0-50 nM, with or without 10 -9 M NO, three days. On the procedure:
Preparation of NO. The peptide amphiphiles (PA-C16-CA and PA-C16-K5) were synthesized, respectively. These two distinct PAs were mixed in a 9:1 ratio (YIGSR:KKKKK) to form PA-C16-YK5, which was subsequently reacted with NO gas to form PA-YK-NO. The released NO was collected, and NO concentration was measured using Greiss Assay.
Treatment on hAEC. hAECs were seeded in a 48-well plate at a cell density of 2000 per well and allowed to attach for 24 h (hereafter the “endothelium”). For the sirolimus-only group, the sirolimus at concentrations of 0, 0.25, 0.1, 0.5, 1, and 50 nM were added to the hAECs, and then the hAECs were cultured for another three days. Similarly, for the dual-treatment group, sirolimus at similar concentrations was combined with 10 -9 M NO and added to hAEC. Then, the proliferation of hAEC under different conditions was assessed by CyQUANT Cell Proliferation Assay after three days. Briefly, the culture medium in each well was removed, and the cells in the tissue culture plate were frozen overnight at −80° C.; then, the dye in the lysis buffer was added after completely thawing at room temperature. After 30 min incubation, the fluorescent signal was measured using a microplate reader at 485/528 nm.

As for `COc1cc2c(c(OC)c1OC)-c1ccc(OC)c(=O)cc1[C@@H](NC(C)=O)CC2` [colchicine, N[5′,6,7,9-tetrahydro-1,2,3,10-tetratmethoxy 9-oxobenzo[a]heptalen-7-yl], (S)-acetamide], the “colchicine concentration at which NO production of diseased hAECs increased” value in data set [1] is “above 20 nM”. In the data set with U937 cells, the “colchicine concentration at which suppression of foam cells was observed” value was “above 2 nM”. Moreover, the “composite endpoint of cardiovascular death, resuscitated cardiac arrest, myocardial infarction, stroke, or urgent hospitalization for angina (COLCOT)” value in data set [2] (0.5 mg once daily versus placebo, myocardial infarction within 30 days) was “lower among those who received 0.5 mg of colchicine once daily than among those who received placebo”. Moreover, the “risk of acute cardiovascular events (LoDoCo)” value in data set [2] (0.5 mg once daily, chronic coronary disease, open-label) is listed as “lower among those who received 0.5 mg of colchicine once daily than those who did not receive colchicine”. Besides, in data set [2] (four major randomized controlled trials), the “primary composite endpoint of cardiovascular mortality, myocardial infarction, ischemic stroke, and urgent revascularization (meta-analysis)” value is listed as “significant reduction”.
For the compound `CO[C@H]1C[C@@H]2CC[C@@H](C)[C@@](O)(O2)C(=O)C(=O)N2CCCC[C@H]2C(=O)O[C@H]([C@H](C)C[C@@H]2CC[C@@H](O)[C@H](OC)C2)CC(=O)[C@H](C)/C=C(\C)[C@@H](O)[C@@H](OC)C(=O)[C@H](C)C[C@H](C)/C=C/C=C/C=C/1C` [Sirolimus], the solubility in water result in data set [3] is given as “virtually insoluble in water”. The hAEC proliferation entry in the data set with HAECs is reported as “reduced the proliferation of hAECs dose-dependently”.

(Values after patent US20240199698A1, “PEPTIDE AMPHIPHILE COMPOSITIONS AND METHODS OF USE THEREOF” (UAB RESEARCH FOUNDATION, priority 2022, published 2024).)
